Source: paper PMC6028563, “Probing Substituents in the 1- and 3-Position: Tetrahydropyrazino-Annelated Water-Soluble Xanthine Derivatives as Multi-Target Drugs With Potent Adenosine Receptor Antagonistic Activity” (Frontiers in Chemistry, 2018)

Key:
rat A1 AR = biological target: T1, rat A1 AR (Rattus norvegicus, UniProt P25099); test: Radioligand binding assay at rat A1 AR (rat brain cortex) vs. [^3H]CCPA; conditions: rat (r); for Ki: rat brain cortex, n = 3; for inhibition at 1.5 µM: read-out: % inhibition of radioligand binding at indicated concentration, A1 vs. [^3H]CCPA, at 1,500 nM
T1 construct: A1 ARs of rat brain cortical membrane; from tissue; host or cells: rat brain cortex membranes
T1 sequence (P25099 1-326): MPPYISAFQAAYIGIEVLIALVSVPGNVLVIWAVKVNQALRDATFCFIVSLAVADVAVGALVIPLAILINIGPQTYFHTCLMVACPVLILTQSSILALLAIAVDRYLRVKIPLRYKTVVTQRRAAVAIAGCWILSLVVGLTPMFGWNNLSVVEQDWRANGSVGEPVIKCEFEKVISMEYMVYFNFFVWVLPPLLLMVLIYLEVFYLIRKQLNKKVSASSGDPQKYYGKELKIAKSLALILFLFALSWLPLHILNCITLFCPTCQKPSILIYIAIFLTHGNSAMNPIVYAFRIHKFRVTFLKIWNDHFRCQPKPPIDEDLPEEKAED
Protocol: (§1) Membrane preparations and radioligand binding assays at rat A1 (rat brain cortex) and rat A2A ARs (rat brain striatum) were performed as previously described (Ozola et al., [2003]; Alnouri et al., [2015]). For assays at human A1, A2A, A2B, and A3 ARs, CHO cell membranes expressing one of the human AR subtypes were used as previously reported (Klotz et al., [1998]; Alnouri et al., [2015]; De Filippo et al., [2016]).
(§2) The synthesized tetrahydropyrazino[2,1-f ]purinediones 13–20 were evaluated in radioligand binding assays for their affinity to A1 ARs of rat brain cortical membrane and to A2A ARs of rat brain striatal membrane preparations. Selected compounds were further investigated for their affinity to human A1 and A2A ARs recombinantly expressed in Chinese hamster ovary (CHO) cells. All compounds were additionally investigated for their affinity to human A2B and A3 ARs recombinantly expressed in CHO cells to determine their AR subtype selectivity. […] It is well known that all xanthine derivatives lacking a ribose moiety, including tricyclic compounds, can only block ARs, but never act as AR agonists; therefore, additional functional studies were not required. […] Potent MAO-B inhibitors were additionally investigated for inhibition of human MAO-A to assess their selectivity. Results are presented in Tables 1–6, and data of standard ligands are included for comparison.

rat A2A AR = biological target: T2, rat A2A AR (Rattus norvegicus, UniProt P30543); test: Radioligand binding assay at rat A2A AR (rat brain striatum) vs. [^3H]MSX-2; conditions: rat (r); for % inhibition of radioligand binding at indicated concentration, A2A vs. [^3H]MSX-2: at 1,000 nM; for Ki: rat brain striatum, n = 3, read-out: Ki ± SEM, A2A vs. [^3H]MSX-2
T2 construct: A2A ARs of rat brain striatal membrane preparations; from tissue; host or cells: rat brain striatum membranes
T2 sequence (P30543 whole entry): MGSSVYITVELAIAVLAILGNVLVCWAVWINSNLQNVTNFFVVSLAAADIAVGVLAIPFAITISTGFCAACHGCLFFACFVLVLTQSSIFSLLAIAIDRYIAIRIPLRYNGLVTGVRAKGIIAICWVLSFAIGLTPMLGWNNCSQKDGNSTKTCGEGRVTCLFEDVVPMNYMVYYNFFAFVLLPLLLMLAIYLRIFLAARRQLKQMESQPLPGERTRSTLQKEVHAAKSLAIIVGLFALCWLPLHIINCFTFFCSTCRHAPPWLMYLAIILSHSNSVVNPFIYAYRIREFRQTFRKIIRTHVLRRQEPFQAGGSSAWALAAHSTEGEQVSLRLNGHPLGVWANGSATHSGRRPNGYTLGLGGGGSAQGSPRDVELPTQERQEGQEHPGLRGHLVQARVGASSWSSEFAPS
Protocol: as §1, §2

human A2B AR = biological target: T3, human A2B AR (Homo sapiens, UniProt P29275); test: Radioligand binding assay at human A2B AR vs. [^3H]PSB-603; conditions: for Ki: CHO cell membranes, n = 2 (n = 3 where marked a), read-out: Ki ± SEM, A2B vs. [^3H]PSB-603; for inhibition at 1 µM: at 1,000 nM, read-out: % inhibition of radioligand binding at indicated concentration, A2B vs. [^3H]PSB-603
T3 construct: expressed in transfected cells; host or cells: CHO cells
T3 sequence (P29275 1-332): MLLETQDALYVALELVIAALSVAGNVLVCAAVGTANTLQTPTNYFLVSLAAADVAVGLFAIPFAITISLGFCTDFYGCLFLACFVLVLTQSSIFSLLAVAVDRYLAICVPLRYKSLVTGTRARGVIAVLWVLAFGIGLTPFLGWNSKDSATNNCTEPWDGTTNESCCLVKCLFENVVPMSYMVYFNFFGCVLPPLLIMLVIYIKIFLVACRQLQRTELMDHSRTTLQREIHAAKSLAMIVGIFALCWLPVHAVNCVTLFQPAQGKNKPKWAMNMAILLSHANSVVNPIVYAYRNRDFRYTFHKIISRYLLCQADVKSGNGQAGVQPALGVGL
Protocol: as §1, §2

human A3 AR = biological target: T4, human A3 AR (Homo sapiens, UniProt P0DMS8); test: Radioligand binding assay at human A3 AR vs. [^3H]PSB-11; conditions: for Ki: CHO cell membranes, n = 2 (n = 3 where marked a), read-out: Ki ± SEM, A3 vs. [^3H]PSB-11; for inhibition at 10 µM: at 10,000 nM, read-out: % inhibition of radioligand binding at indicated concentration, A3 vs. [^3H]PSB-11
T4 construct: expressed in transfected cells; host or cells: CHO cells
T4 sequence (P0DMS8 1-318): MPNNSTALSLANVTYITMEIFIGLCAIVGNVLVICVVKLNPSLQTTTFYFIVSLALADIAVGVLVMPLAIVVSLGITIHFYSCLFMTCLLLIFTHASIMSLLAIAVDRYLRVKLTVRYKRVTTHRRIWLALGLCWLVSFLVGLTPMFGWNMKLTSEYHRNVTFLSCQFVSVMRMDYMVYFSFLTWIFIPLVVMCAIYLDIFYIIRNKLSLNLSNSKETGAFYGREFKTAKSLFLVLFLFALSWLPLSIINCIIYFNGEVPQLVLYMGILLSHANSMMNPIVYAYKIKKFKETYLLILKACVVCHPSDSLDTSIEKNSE
Protocol: as §1, §2

recombinant human MAO-A = biological target: T5, recombinant human MAO-A (Homo sapiens, UniProt P21397); test: Monoamine oxidase assay (Amplex Red), MAO-A; format: biochemical; conditions: for inhibition at 10 µM: at 10,000 nM, read-out: % inhibition at indicated concentration, Human MAO-A; for IC50: n = 3, read-out: IC50 ± SEM, Human MAO-A
T5 construct: purchased Sigma-Aldrich M7316; host or cells: baculovirus-infected insect cells
T5 sequence (P21397 1-527): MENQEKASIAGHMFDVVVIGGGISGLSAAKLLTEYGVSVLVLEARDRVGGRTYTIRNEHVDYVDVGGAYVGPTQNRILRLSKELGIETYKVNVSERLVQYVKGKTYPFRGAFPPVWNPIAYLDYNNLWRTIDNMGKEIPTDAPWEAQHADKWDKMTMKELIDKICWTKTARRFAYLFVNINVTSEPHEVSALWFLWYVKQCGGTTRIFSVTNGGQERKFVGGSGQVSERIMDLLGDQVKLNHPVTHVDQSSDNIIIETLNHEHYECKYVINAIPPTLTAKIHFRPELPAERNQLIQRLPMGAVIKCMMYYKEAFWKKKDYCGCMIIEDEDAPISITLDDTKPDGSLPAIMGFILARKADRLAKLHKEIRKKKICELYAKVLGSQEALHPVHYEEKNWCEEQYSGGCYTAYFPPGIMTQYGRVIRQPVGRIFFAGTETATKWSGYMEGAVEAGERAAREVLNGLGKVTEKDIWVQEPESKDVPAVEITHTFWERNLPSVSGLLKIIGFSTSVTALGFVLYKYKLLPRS
Protocol: (§3) The determination of MAO-A and MAO-B inhibition was performed using commercially available recombinant human MAO-A and MAO-B enzymes expressed in baculovirus-infected insects sells (Sigma-Aldrich, M7316 and M7441) applying the commercially available Amplex® Red monoamine oxidase assay kit (Invitrogen A12214). The assays were performed as previously described. The determination of rat MAO-B inhibition was performed using mitochondrial-enriched fractions from male Sprague Dawley rat livers. […]

recombinant human MAO-B = biological target: T6, recombinant human MAO-B (Homo sapiens, UniProt P27338); test: Monoamine oxidase assay (Amplex Red), MAO-B; format: biochemical; conditions: for IC50: read-out: IC50 ± SEM, Human MAO-B; for inhibition at 10 µM: at 10,000 nM (10 μM), read-out: % inhibition at indicated concentration, Human MAO-B
T6 construct: purchased Sigma-Aldrich M7441; host or cells: baculovirus-infected insect cells
T6 sequence (P27338 1-520): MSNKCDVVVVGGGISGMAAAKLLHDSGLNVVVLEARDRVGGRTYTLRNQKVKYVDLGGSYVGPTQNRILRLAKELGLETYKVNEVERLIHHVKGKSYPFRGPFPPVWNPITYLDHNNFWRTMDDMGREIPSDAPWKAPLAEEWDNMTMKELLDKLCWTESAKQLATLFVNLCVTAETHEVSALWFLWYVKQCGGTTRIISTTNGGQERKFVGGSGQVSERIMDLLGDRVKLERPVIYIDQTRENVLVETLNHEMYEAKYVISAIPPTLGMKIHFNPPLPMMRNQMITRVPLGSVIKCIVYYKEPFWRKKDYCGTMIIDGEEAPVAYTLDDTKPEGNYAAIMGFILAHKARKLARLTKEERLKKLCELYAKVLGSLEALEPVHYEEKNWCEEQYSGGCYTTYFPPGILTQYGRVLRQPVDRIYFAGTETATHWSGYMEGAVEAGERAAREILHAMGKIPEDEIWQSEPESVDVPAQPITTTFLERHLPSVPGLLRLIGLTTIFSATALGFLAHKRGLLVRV
Protocol: as §3

human A1 AR = biological target: T7, human A1 AR (Homo sapiens, UniProt P30542); test: Radioligand binding assay at human A1 AR vs. [^3H]CCPA; conditions: human (h); CHO cell membranes; n = 3
T7 construct: expressed in transfected cells; host or cells: CHO cells
T7 sequence (P30542 1-326): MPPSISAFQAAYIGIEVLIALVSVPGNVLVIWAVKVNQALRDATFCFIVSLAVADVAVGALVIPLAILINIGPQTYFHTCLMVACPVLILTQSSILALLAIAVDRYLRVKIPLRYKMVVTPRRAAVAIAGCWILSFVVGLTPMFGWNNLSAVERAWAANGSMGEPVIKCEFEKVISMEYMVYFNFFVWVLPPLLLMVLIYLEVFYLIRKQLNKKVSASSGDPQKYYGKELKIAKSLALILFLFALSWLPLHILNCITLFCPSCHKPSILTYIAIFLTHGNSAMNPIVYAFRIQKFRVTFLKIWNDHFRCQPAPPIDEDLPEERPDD
Protocol: as §1, §2

Ki (rat A1 AR) [nM]	inhibition at 1.5 µM (rat A1 AR) [%]	% inhibition of radioligand binding at indicated concentration, A2A vs. [^3H]MSX-2 (rat A2A AR) [%]	Ki (rat A2A AR) [nM]	Ki (human A2B AR) [nM]	inhibition at 1 µM (human A2B AR) [%]	Ki (human A3 AR) [nM]	inhibition at 10 µM (human A3 AR) [%]	inhibition at 10 µM (recombinant human MAO-A) [%]	IC50 (recombinant human MAO-A) [nM]	IC50 ± SEM, Human MAO-B (recombinant human MAO-B; n = 3)	IC50 (recombinant human MAO-B; n = 3) [nM]	Ki (human A1 AR) [nM]	inhibition at 10 µM (recombinant human MAO-B) [%]	SMILES
> 1500	3	10	> 1000	> 1000	1	> 10000	41	12	> 10000	submicromolar range	864 ± 64	–	–	Cn1c(=O)[nH]c(=O)c2c1nc1n2CCN(CCc2ccc(Cl)c(Cl)c2)C1 [Compound 13g, 8-(3,4-dichlorophenethyl)-1-methyl-6,7,8,9-tetrahydropyrazino[2,1-f]purine-2,4(1H,3H)-dione]
> 1500	5	19	> 1000	> 1000	1	17200	–	13	> 10000	–	2880	–	–	Cn1c(=O)[nH]c(=O)c2c1nc1n2CCN(CCc2ccc(Cl)cc2Cl)C1 [Compound 13f, 8-(2,4-dichlorophenethyl)-1-methyl-6,7,8,9-tetrahydropyrazino[2,1-f]purine-2,4(1H,3H)-dione]
164 ± 28	–	7	> 1000	> 1000	9	> 10000	37	–	–	–	> 10000	5120	24	CCn1c(=O)c2c(nc3n2CCN(Cc2ccc(F)cc2)C3)n(C)c1=O [Compound 14h, 3-ethyl-8-(4-fluorobenzyl)-1-methyl-6,7,8,9-tetrahydropyrazino[2,1-f]purine-2,4(1H,3H)-dione]
> 1500	19	30	> 1000	> 1000	33	> 10000	36	8	> 10000	–	3070	–	–	CCn1c(=O)c2c(nc3n2CCN(Cc2ccc(F)c(C(F)(F)F)c2)C3)n(CC)c1=O [Compound 15i, 1,3-diethyl-8-(4-fluoro-3-(trifluoromethyl)benzyl)-6,7,8,9-tetrahydropyrazino[2,1-f]purine-2,4(1H,3H)-dione]
> 1500	17	-23	> 1000	> 1000	1	14700	–	13	> 10000	–	4530	–	–	Cn1c(=O)[nH]c(=O)c2c1nc1n2CCN(Cc2ccccc2Br)C1 [Compound 13a, 8-(2-bromobenzyl)-1-methyl-6,7,8,9-tetrahydropyrazino[2,1-f]purine-2,4(1H,3H)-dione]
142 ± 32	–	–	1100	> 1000	8	> 10000	17	–	–	–	> 10000	197 ± 5	43	CCn1c(=O)c2c(nc3n2CCN(Cc2c(Cl)cccc2Cl)C3)n(C)c1=O [Compound 14k, 8-(2,6-dichlorobenzyl)-3-ethyl-1-methyl-6,7,8,9-tetrahydropyrazino[2,1-f]purine-2,4(1H,3H)-dione]
47.2 ± 19.9	–	–	1580	> 1000	9	7020	–	–	–	–	≥ 10000	207 ± 11	49	CCn1c(=O)c2c(nc3n2CCN(Cc2cccc(F)c2)C3)n(CC)c1=O [Compound 15b, 1,3-diethyl-8-(3-fluorobenzyl)-6,7,8,9-tetrahydropyrazino[2,1-f]purine-2,4(1H,3H)-dione]
